System: 422866-222-R5-J1-PDC spheroid viability
Experiment: Anticancer human tumor 422866-222-R5-J1-PDC patient-derived pancreatic adenocarcinoma cell line growth inhibition [CLK]
Settings: spheroids with HUVEC and MSC; for IC50: curve of first compound; for viability, T/C: stronger effect = lower value
Procedure, shortened: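 Multi-cell-type spheroids combined patient-derived tumor cells with HUVEC endothelial cells and human mesenchymal stem cells. Paired agents were dosed in half-log steps down from about clinical Cmax, or from 10 microM where Cmax was unknown.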

[1] = second compound 0.0316 µM, first compound 0.0316 µM
[2] = second compound 0.0316 µM, first compound 0.1 µM
[3] = second compound 0.0316 µM, first compound 0.316 µM
[4] = second compound 0.0316 µM, first compound 1 µM
[5] = second compound 0.0316 µM, first compound 3.16 µM
[6] = second compound 0.0316 µM, first compound 10 µM
[7] = second compound 0.1 µM, first compound 0.0316 µM
[8] = second compound 0.1 µM, first compound 0.1 µM
[9] = second compound 0.1 µM, first compound 0.316 µM
[10] = second compound 0.1 µM, first compound 1 µM
[11] = second compound 0.1 µM, first compound 3.16 µM
[12] = second compound 0.1 µM, first compound 10 µM
[13] = second compound 0.316 µM, first compound 0.0316 µM
[14] = second compound 0.316 µM, first compound 0.1 µM
[15] = second compound 0.316 µM, first compound 0.316 µM
[16] = second compound 0.316 µM, first compound 1 µM
[17] = second compound 0.316 µM, first compound 3.16 µM
[18] = second compound 0.316 µM, first compound 10 µM
[19] = second compound 1 µM, first compound 0.0316 µM
[20] = second compound 1 µM, first compound 0.1 µM
[21] = second compound 1 µM, first compound 0.316 µM
[22] = second compound 1 µM, first compound 1 µM
[23] = second compound 1 µM, first compound 3.16 µM
[24] = second compound 1 µM, first compound 10 µM
[25] = second compound 3.16 µM, first compound 0.0316 µM
[26] = second compound 3.16 µM, first compound 0.1 µM
[27] = second compound 3.16 µM, first compound 0.316 µM
[28] = second compound 3.16 µM, first compound 1 µM
[29] = second compound 3.16 µM, first compound 3.16 µM
[30] = second compound 3.16 µM, first compound 10 µM
[31] = second compound 10 µM, first compound 0.0316 µM
[32] = second compound 10 µM, first compound 0.1 µM
[33] = second compound 10 µM, first compound 0.316 µM
[34] = second compound 10 µM, first compound 1 µM
[35] = second compound 10 µM, first compound 3.16 µM
[36] = second compound 10 µM, first compound 10 µM
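Further: spheroids exposed to agents for seven days before readout.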

With `CC1(C)CCC(CN2CCN(c3ccc(C(=O)NS(=O)(=O)c4ccc(NCC5CCOCC5)c([N+](=O)[O-])c4)c(Oc4cnc5[nH]ccc5c4)c3)CC2)=C(c2ccc(Cl)cc2)C1` + CNC(=O)c1ccc(Nc2nc(OC3CCCC3)c3c(-c4ccc5nc(C)oc5c4)c[nH]c3n2)c(OC)c1 the IC50 (second compound 0.0316 µM) was > 10 µM, the IC50 (second compound 0.1 µM) was > 10 µM and the IC50 (second compound 0.316 µM) was > 10 µM. For the same molecule, the IC50 (second compound 1 µM) was > 10 µM, the IC50 (second compound 3.16 µM) was > 10 µM and the IC50 (second compound 10 µM) was > 10 µM. For the same molecule, the viability, T/C [1] was 115%, the viability, T/C [2] was 87.5% and the viability, T/C [3] was 93.9%. For the same molecule, the viability, T/C [4] was 119%, the viability, T/C [5] was 131% and the viability, T/C [6] was 93.4%. For the same molecule, the viability, T/C [7] was 114%, the viability, T/C [8] was 90% and the viability, T/C [9] was 98.7%. The viability, T/C [10] was 100%, the viability, T/C [11] was 114% and the viability, T/C [12] was 81.3%. The viability, T/C [13] was 84.6%, the viability, T/C [14] was 71.9% and the viability, T/C [15] was 70.1%. The viability, T/C [16] was 75.7%, the viability, T/C [17] was 86.6% and the viability, T/C [18] was 78%. It also gave a viability, T/C [19] of 75.3%, a viability, T/C [20] of 76.4% and a viability, T/C [21] of 76%. The viability, T/C [22] was 70.7%, the viability, T/C [23] was 66% and the viability, T/C [24] was 57.1%. The viability, T/C [25] was 65.2%, the viability, T/C [26] was 76.6% and the viability, T/C [27] was 66.4%. For the same molecule, the viability, T/C [28] was 67.7%, the viability, T/C [29] was 76.8% and the viability, T/C [30] was 79.5%. The viability, T/C [31] was 60.3%, the viability, T/C [32] was 62.4% and the viability, T/C [33] was 61%. The viability, T/C [34] was 56.6%, the viability, T/C [35] was 78.1% and the viability, T/C [36] was 84.3%.

With `CC(=O)O[C@H]1C(=O)[C@@]2(C)[C@H]([C@H](OC(=O)c3ccccc3)[C@]3(O)C[C@H](OC(=O)[C@H](O)[C@@H](NC(=O)c4ccccc4)c4ccccc4)C(C)=C1C3(C)C)[C@]1(OC(C)=O)CO[C@@H]1C[C@@H]2O` + CNC(=O)c1ccc(Nc2nc(OC3CCCC3)c3c(-c4ccc5nc(C)oc5c4)c[nH]c3n2)c(OC)c1 the IC50 (second compound 0.0316 µM) was > 10 µM, the IC50 (second compound 0.1 µM) was > 10 µM and the IC50 (second compound 0.316 µM) was > 10 µM. The IC50 (second compound 1 µM) was 0.0316 µM, the IC50 (second compound 3.16 µM) was > 10 µM and the IC50 (second compound 10 µM) was > 10 µM. For the same molecule, the viability, T/C [1] was 68.8%, the viability, T/C [2] was 61.1% and the viability, T/C [3] was 65.3%. For the same molecule, the viability, T/C [4] was 83.3%, the viability, T/C [5] was 102% and the viability, T/C [6] was 100%. The viability, T/C [7] was 61%, the viability, T/C [8] was 67.9% and the viability, T/C [9] was 63%. The viability, T/C [10] was 74.8%, the viability, T/C [11] was 78.5% and the viability, T/C [12] was 98.1%. It also gave a viability, T/C [13] of 59.4%, a viability, T/C [14] of 68% and a viability, T/C [15] of 62.2%. The viability, T/C [16] was 61.4%, the viability, T/C [17] was 65.5% and the viability, T/C [18] was 78.7%. It also gave a viability, T/C [19] of 56.5%, a viability, T/C [20] of 48.4% and a viability, T/C [21] of 52.8%. For the same molecule, the viability, T/C [22] was 48.5%, the viability, T/C [23] was 66.5% and the viability, T/C [24] was 73%. The viability, T/C [25] was 56.5%, the viability, T/C [26] was 60.8% and the viability, T/C [27] was 52.3%. The viability, T/C [28] was 57.9%, the viability, T/C [29] was 70.5% and the viability, T/C [30] was 79%. It also gave a viability, T/C [31] of 48.9%, a viability, T/C [32] of 60.1% and a viability, T/C [33] of 61.4%. It also gave a viability, T/C [34] of 53.9%, a viability, T/C [35] of 65.4% and a viability, T/C [36] of 70.5%.

From PubChem BioAssay AID2060603 (Molecular Pharmacology Branch, DTP, NCI, 2025)
